Measurements reported in the supplement of paper PMC10307832.

Columns and labels:
Test in all cases: relative viability (nuclei count vs DMSO), 5 days (fraction); higher = more cells survive
[1] = compound: CNC(=O)c1cc(Oc2ccc(NC(=O)Nc3ccc(Cl)c(C(F)(F)F)c3)cc2)ccn1 [Sorafenib] + CC(=O)Nc1cccc(-n2c(=O)n(C3CC3)c(=O)c3c(Nc4ccc(I)cc4F)n(C)c(=O)c(C)c32)c1 [Trametinib] (partner 0.02 µM)
Outline: (§1)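 Lung cancer cell lines were pin-tool dosed in 1536-well plates on the day after seeding, with either a lone drug or a fixed anchor-drug dose plus five library-drug doses (not always all listed) in √10 steps. Nuclei were counted on 4× images after 5 days. Relative viability is the ratio of treated-well to vehicle-well nuclei counts, with each value a median of duplicate plates.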

[2] = compound: CNC(=O)c1cc(Oc2ccc(NC(=O)Nc3ccc(Cl)c(C(F)(F)F)c3)cc2)ccn1 [Sorafenib] + CCNC(=O)c1noc(-c2cc(C(C)C)c(O)cc2O)c1-c1ccc(CN2CCOCC2)cc1 [Luminespib] (partner 0.01 µM)
Outline: as §1

[3] = compound: CNC(=O)c1cc(Oc2ccc(NC(=O)Nc3ccc(Cl)c(C(F)(F)F)c3)cc2)ccn1 [Sorafenib] + CS(=O)(=O)CCNCc1ccc(-c2ccc3ncnc(Nc4ccc(OCc5cccc(F)c5)c(Cl)c4)c3c2)o1 [Lapatinib] (partner 2 µM)
Outline: as §1

[4] = compound: CNC(=O)c1cc(Oc2ccc(NC(=O)Nc3ccc(Cl)c(C(F)(F)F)c3)cc2)ccn1 [Sorafenib] + Cc1nc(NC(=O)N2CCC[C@H]2C(N)=O)sc1-c1ccnc(C(C)(C)C(F)(F)F)c1 [Alpelisib] (partner 2 µM)
Outline: as §1

[5] = compound: CNC(=O)c1cc(Oc2ccc(NC(=O)Nc3ccc(Cl)c(C(F)(F)F)c3)cc2)ccn1 [Sorafenib] + Nc1nc2[nH]cc(CCc3ccc(C(=O)N[C@@H](CCC(=O)O)C(=O)O)cc3)c2c(=O)[nH]1 [Pemetrexed] (partner 0.2 µM)
Outline: as §1

Cell Line	relative viability ([1]; first compound 0.08 µM)	relative viability ([1]; first compound 0.253 µM)	relative viability ([1]; first compound 2.53 µM)	relative viability ([1]; first compound 8 µM)	relative viability ([2]; first compound 0.08 µM)	relative viability ([2]; first compound 0.253 µM)	relative viability ([2]; first compound 2.53 µM)	relative viability ([2]; first compound 8 µM)	relative viability ([3]; first compound 0.08 µM)	relative viability ([3]; first compound 0.253 µM)	relative viability ([3]; first compound 2.53 µM)	relative viability ([3]; first compound 8 µM)	relative viability ([4]; first compound 0.08 µM)	relative viability ([4]; first compound 0.253 µM)	relative viability ([4]; first compound 2.53 µM)	relative viability ([4]; first compound 8 µM)	relative viability ([5]; first compound 0.08 µM)	relative viability ([5]; first compound 0.253 µM)	relative viability ([5]; first compound 2.53 µM)	relative viability ([5]; first compound 8 µM)
NCI-H460	0.225	0.154	0.126	0.0388	0.0329	0.0278	0.0236	0.0147	1.02	0.868	0.915	0.807	0.594	0.643	0.566	0.103	0.0604	0.0653	0.0731	0.0582
NCI-H520	0.934	0.403	0.518	0.217	0.21	0.216	0.232	0.218	0.92	0.71	0.919	0.402	0.963	0.89	0.902	0.526	0.731	0.781	0.58	0.199
NCI-H596	0.844	0.735	0.807	0.75	0.889	1.04	0.977	0.911	1.07	1.11	1.52	0.995	0.471	0.447	0.521	0.509	0.495	0.47	0.563	0.52
NCI-H647	0.583	0.388	0.235	0.144	0.182	0.0896	0.148	0.15	1.18	0.868	1.19	0.426	1.1		0.872		0.171	0.141	0.126	0.0896
NCI-H650	0.989	0.937	0.866	0.578	0.809	0.639	0.605	0.677	0.986	0.855	0.946	0.611	1.31	0.96	0.952	0.963	0.928	0.799	0.904	0.795
NCI-H661	0.584		0.444	0.291	0.931	0.928	0.822	0.293	0.595	0.509	0.446	0.507	0.949	0.478	0.596	0.365	0.918	0.688	0.883	0.427
NCI-H838	0.606	0.507	0.498	0.291	0.346	0.33	0.402	0.243	1.1	0.961	1.16	0.823	1.08	1.1	1.15	0.905	0.277	0.244	0.252	0.16
NCI-H1355	0.493	0.419	0.42	0.264	0.717	0.687	0.779	0.62	1.02	0.96	1.11	1.03	0.887	0.767	0.784	0.778	1.04	0.953	1.02	0.963
NCI-H1395	1.25		1.04	0.846	0.742	0.703	0.576	0.53	1.21	0.714	1.05	0.633	1.26		0.981	0.695	1		0.917	
NCI-H1437	0.59	0.389	0.533	0.342	1.1	1.06	1.17		0.865	0.654	0.773	0.346	1.01	0.922	0.905	0.546	0.335	0.312	0.268	0.184
NCI-H1651	0.853	0.791	0.835	0.74	0.965	0.778	0.958	0.319	0.912	0.696	0.849	0.365	0.979	0.981	0.996	0.547	0.575	0.601	0.611	0.511
NCI-H1666	0.954	0.764	0.762	0.639		1.03	0.951	0.872	0.594	0.674	0.739	0.598	0.849	0.93	0.782	0.537	0.916	0.856		0.62
NCI-H1734	0.71	0.646	0.577	0.324	0.235	0.131	0.186	0.161	1.06	0.991	0.951	0.663	0.685	0.654	0.633	0.568	0.431	0.415		0.374
NCI-H1755	0.8	0.761	0.71	0.557	0.67	0.399	0.371	0.404	1.03	0.999	0.994	0.869	0.977	0.93	0.857	0.694		0.385	0.419	0.355
NCI-H1792	0.527	0.461	0.421	0.177	0.438	0.358	0.534	0.353	0.948	0.811	0.936	0.879	0.704	0.622	0.657	0.664	0.97	0.527	0.578	0.567
NCI-H1793	0.398	0.429	0.325	0.253	0.23	0.207	0.199	0.187	0.71	0.833	0.949	0.221		0.727	1.01	0.511	1.24		1.11	0.529
